This note sets out measurements from ChEMBL document CHEMBL4680283, “Evaluation of 1,1-cyclopropylidene as a thioether isostere in the 4-thio-thienopyrimidine (TTP) series of antimalarials” (Bioorg Med Chem, 2020).

For the assay, the system named is Plasmodium falciparum. Briefly: Antimalarial activity against chloroquine-sensitive Plasmodium falciparum 3D7 MRA-102 infected in human erythrocytes assessed as reduction in parasite growth incubated for 72 hrs by SYBR green dye based fluorescence assay. It counts as functional, organism-based. To be noted: 3D7 MRA-102, Erythrocyte.

The structures appear in SMILES notation.

On to `Cc1csc(C(=O)c2ncnc3sccc23)n1`, for which the EC50 (as a rule, the concentration that produces a half-maximal response) is 4.08 µM. As for `Cn1c(Sc2ncnc3sccc23)nc2ccccc21`, the figure is 0.191 µM; as for `CCOC(=O)/C=C(/c1nc(C)cs1)c1ncnc2sccc12`, 6.97 µM; as for `Cc1csc(Sc2ncnc3sccc23)n1`, 0.037 µM. For `Cn1c(C2(c3ncnc4sccc34)CC2)nc2ccccc21`, the concentration giving a half-maximal response (EC50) was more than 23 µM. As for `Cc1csc(C2(c3ncnc4sccc34)CC2)n1`, the EC50 is more than 23 µM.

On to `Cc1csc(C(C)(O)c2ncnc3sccc23)n1` (configuration not stated), for which the EC50 is more than 23 µM.
